Test results published in patent US9376382B2, “N-substituted isopropyldimethyl azulene sulfonamide derivatives, and preparation method and use thereof” (Sichuan Guokang Pharmaceutical Co., Ltd., priority 2011, dated 2016).

Key:
[1] = Stability studies (light, humidity, heat), overall comparison; conditions: summary of high-temperature, high humidity and intense light tests
Experimental: (§1) The test samples were open-stored in culture dishes at 60° C. for 10 days, and taken and detected on Day 5 and Day 10. • The characteristics, especially colour change were observed. • Melting points were measured by automatic melting point apparatus. • By self-reflection, TLC is used to observe whether the spot numbers were increased after 5 days and 10 days.
(§2) The test samples were open-stored in closed constant humidity desiccators under the condition of 25° C. and relative humidity of 90%+5% for 10 days, and taken and detected on Day 5 and Day 10. Meanwhile, each sample was accurately weighed before and after test.
(§3) The test samples were open-stored in “adjustable light boxes” under the conditions of illumination of 4500LX±500LX for 10 days, and taken and detected on Day 5 and Day 10 with regards to dry items. • The characteristics, especially colour change was observed. • Melting points were measured by an automatic melting point apparatus. • By self-reflection, TLC is used to observe whether the spot numbers were increased after 5 days and 10 days.

[2] = High-temperature test (60° C.), stability study; type: physicochemical; conditions: open-stored; for Appearance Day 5: Day 5, cell wraps; for Appearance Day 5 / Appearance Day 10: first line given; for Appearance Day 10: Day 10, cell wraps;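 on all read-outs here: samples kept uncovered in dishes at 60 °C for up to 10 days and examined on Day 5 and Day 10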
Experimental: as §1

[3] = test system: ethanol-induced gastric ulcer; test: Anhydrous ethanol-induced gastric ulcer in mice; type: in vivo, Kunming mice; parameters: key to Gastri ulcer score (X ± SD) / Ulcer score (X ± SD) / Gastric ulcer score (X ± SD): summed pathology score: congestion 1, hemorrhage/erosion 1, linear erosion 3; conditions: for Inhibition rate (%) / Gastri ulcer score (X ± SD): Table 4; for Inhibition rate (%): inhibition rate of ulcer vs model group; for Gastri ulcer score (X ± SD): mice, intragastric once a day for five days, dose equimolar to azulene sulfonate sodium 3.0 mg/kg (Omeprazole 13.4 mg/kg), model group 13.00 ± 1.77; for anti-gastric ulcer effect in words: ethanol-induced gastric ulcer in mice, compared to the model group
Experimental: Kunming mice, half male and half female, weighing 18-22 g, provided by the West China Animal Center
(1) Azulene sodium sulphonate was added with 0.5% CMC to prepare a suspension with concentration of 0.15 mg/ml.
(2) 20 mg of Omeprazole was added with 0.5% CMC to prepare a suspension with concentration of 0.67 mg/ml.
Kunming mice were randomly grouped according the body weight (one model control group or negative control group, one Omeprazole control group or positive control group, one Azulene sodium sulphonate control group, twelve test drug groups), eight mice for each group, half male and half female.
Administration: Model control group was administrated intragastrically with 0.5% CMC solution at a dose of 0.4 ml/20 g; Omeprazole control group was administrated intragastrically with Omeprazole at a dose of 0.4 ml/20 g, Azulene sodium sulphonate control group and each test drug groups were administrated intragastrically with their respective drug at a dose of 0.4 ml/20 g. The mice in each group were administrated once a day for successive five days. 0.5 hour after final administration, the mice in each group were administrated intragastrically with 0.5 ml of anhydrous ethanol, one hour later the mice were executed and dissected, and their stomaches were taken, washed and scored according to the pathological degree. For local congestion and rubefaction, score was 1; for petechial hemorrhage or erosion, score was respectively 1, for each linear erosion, score was 3. Statistical analysis was performed. Ulcer scores were calculated, significant differences between the groups were compared and the inhibition rates of ulcer were calculated [Inhibition rate of ulcer=(ulcer score of model group−ulcer score of drug administration group)/ulcer score of model group].

[4] = High humidity test (25° C., relative humidity 90% ± 5%), stability study; type: physicochemical; conditions: RH 90% ± 5%; for Appearance Day 0: Day 0, cell wraps; for Appearance Day 0 / Appearance Day 5 / Appearance Day 10: first line given; for Appearance Day 5: Day 5, cell wraps; for Appearance Day 10: Day 10, cell wraps;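 on all read-outs here: samples kept uncovered in sealed humidity desiccators, appearance judged mainly by colour change, melting point on an automatic apparatus, TLC checked for extra spots versus start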
Experimental: as §2
The characteristics, especially colour change was observed.
Melting points were measured by an automatic melting point apparatus.
By self-reflection, TLC is used to observe whether the spot numbers were increased after 5 days and 10 days.

[5] = Intense light irradiation test (4500LX ± 500LX), stability study; type: physicochemical; conditions: for Appearance Day 0: Day 0, cell wraps; for Appearance Day 0 / Appearance Day 5 / Appearance Day 10: first line given; for Appearance Day 5: Day 5, cell wraps; for Appearance Day 10: Day 10, cell wraps
Experimental: as §3

## Cc1cc(S(=O)(=O)Nc2cccc(Br)c2)c2c(C)ccc(C(C)C)cc1-2 [4a, N-(3-bromophenyl)-3,8-dimethyl-5-isopropyl-1-azulene sulfonamide]
[1]
  light, humidity and heat stability in words: better light, humidity and heat stability than azulene sulfonate sodium
[2]
  Melting point Day 0: 172.5-174.0 °C
  Spot numbers on TLC Day 0: 1
  Melting point Day 5: 172.0-173.5 °C
  Spot numbers on TLC Day 5: 1
  Appearance Day 5: purple
  Melting point Day 10: 172.5-174.0 °C
  Spot numbers on TLC Day 10: 1
  Appearance Day 10: purple
other
  melting point: 172 to 174 °C
[3]
  Inhibition rate (%): 51.31%
  Gastri ulcer score (X ± SD): 6.33 ± 4.50
  anti-gastric ulcer effect in words: significantly relieve the pathological degree
[4]
  Melting point Day 0: 172.5-174.0 °C
  Spot numbers on TLC Day 0: 1
  hygroscopic rate (%) Day 0: 1.01%
  Appearance Day 0: purple
  Melting point Day 5: 172.0-174.5 °C
  Spot numbers on TLC Day 5: 1
  hygroscopic rate (%) Day 5: 1.46%
  Appearance Day 5: purple
  Melting point Day 10: 172.0-174.5 °C
  Spot numbers on TLC Day 10: 1
  Appearance Day 10: purple
[5]
  Melting point Day 0: 172.5-174.0 °C
  Spot numbers on TLC Day 0: 1
  Appearance Day 0: purple
  Melting point Day 5: 172.0-175.0 °C
  Spot numbers on TLC Day 5: 1
  Appearance Day 5: purple
  Melting point Day 10: 173.0-174.0 °C
  Spot numbers on TLC Day 10: 1
  Appearance Day 10: purple

## COc1ccc(NS(=O)(=O)c2cc(C)c3cc(C(C)C)ccc(C)c2-3)c(OC)c1 [4b, N-(2,4-dimethoxyphenyl)-3,8-dimethyl-5-isopropyl-1-azulene sulfonamide]
[1]
  light, humidity and heat stability in words: better light, humidity and heat stability than azulene sulfonate sodium
[2]
  Melting point Day 0: 114.0-115.5 °C
  Spot numbers on TLC Day 0: 1
  Melting point Day 5: 114.5-116.0 °C
  Spot numbers on TLC Day 5: 1
  Appearance Day 5: purple
  Melting point Day 10: 113.5-115.0 °C
  Spot numbers on TLC Day 10: 1
  Appearance Day 10: purple
other
  melting point: 114 to 116 °C
[3]
  Inhibition rate (%): 52.77%
  Gastri ulcer score (X ± SD): 6.14 ± 2.85
  anti-gastric ulcer effect in words: significantly relieve the pathological degree
[4]
  Melting point Day 0: 114.0-115.5 °C
  Spot numbers on TLC Day 0: 1
  hygroscopic rate (%) Day 0: 0.97%
  Appearance Day 0: purple
  Melting point Day 5: 114.0-115.5 °C
  Spot numbers on TLC Day 5: 1
  hygroscopic rate (%) Day 5: 1.24%
  Appearance Day 5: purple
  Melting point Day 10: 114.0-115.5 °C
  Spot numbers on TLC Day 10: 1
  Appearance Day 10: purple
[5]
  Spot numbers on TLC Day 0: 1
  Appearance Day 0: purple
  Spot numbers on TLC Day 5: 1
  Appearance Day 5: purple
  Spot numbers on TLC Day 10: 1
  Appearance Day 10: purple

## Cc1cc(S(=O)(=O)Nc2cccc3ccccc23)c2c(C)ccc(C(C)C)cc1-2 [4d, N-(1-naphthyl)-3,8-dimethyl-5-isopropyl-1-azulene sulfonamide]
[1]
  light, humidity and heat stability in words: better light, humidity and heat stability than azulene sulfonate sodium
[2]
  Melting point Day 0: 140.0-142.5 °C
  Spot numbers on TLC Day 0: 1
  Melting point Day 5: 141.5-142.5 °C
  Spot numbers on TLC Day 5: 1
  Appearance Day 5: purple
  Melting point Day 10: 140.0-142.5 °C
  Spot numbers on TLC Day 10: 1
  Appearance Day 10: purple
other
  melting point: 140 to 142 °C
[3]
  Inhibition rate (%): 50.54%
  Gastri ulcer score (X ± SD): 6.43 ± 2.99
  anti-gastric ulcer effect in words: significantly relieve the pathological degree
[4]
  Melting point Day 0: 140.0-142.5 °C
  Spot numbers on TLC Day 0: 1
  hygroscopic rate (%) Day 0: 1.23%
  Appearance Day 0: purple
  Melting point Day 5: 140.0-142.5 °C
  Spot numbers on TLC Day 5: 1
  hygroscopic rate (%) Day 5: 1.61%
  Appearance Day 5: purple
  Melting point Day 10: 140.0-142.5 °C
  Spot numbers on TLC Day 10: 1
  Appearance Day 10: purple
[5]
  Melting point Day 0: 140.0-142.5 °C
  Spot numbers on TLC Day 0: 1
  Appearance Day 0: purple
  Melting point Day 5: 141.5-143.0 °C
  Spot numbers on TLC Day 5: 1
  Appearance Day 5: purple
  Melting point Day 10: 140.0-142.0 °C
  Spot numbers on TLC Day 10: 1
  Appearance Day 10: purple

## Cc1cc(S(=O)(=O)Nc2ccc(Cl)cc2)c2c(C)ccc(C(C)C)cc1-2 [4k, N-(4-chlorophenyl)-3,8-dimethyl-5-isopropyl-1-azulene sulfonamide]
[1]
  light, humidity and heat stability in words: better light, humidity and heat stability than azulene sulfonate sodium
[2]
  Melting point Day 0: 134.5-135.0 °C
  Spot numbers on TLC Day 0: 1
  Melting point Day 5: 134.0-135.5 °C
  Spot numbers on TLC Day 5: 1
  Appearance Day 5: purple
  Melting point Day 10: 134.0-135.5 °C
  Spot numbers on TLC Day 10: 1
  Appearance Day 10: purple
other
  melting point: 134 to 135 °C
[4]
  Melting point Day 0: 134.5-135.0 °C
  Spot numbers on TLC Day 0: 1
  hygroscopic rate (%) Day 0: 1.17%
  Appearance Day 0: purple
  Melting point Day 5: 134.5-135.5 °C
  Spot numbers on TLC Day 5: 1
  hygroscopic rate (%) Day 5: 1.87%
  Appearance Day 5: purple
  Melting point Day 10: 134.5-135.5 °C
  Spot numbers on TLC Day 10: 1
  Appearance Day 10: purple
[5]
  Melting point Day 0: 134.5-135.0 °C
  Spot numbers on TLC Day 0: 1
  Appearance Day 0: purple
  Melting point Day 5: 134.0-135.5 °C
  Spot numbers on TLC Day 5: 1
  Appearance Day 5: purple
  Melting point Day 10: 134.0-135.5 °C
  Spot numbers on TLC Day 10: 1
  Appearance Day 10: purple
